From article PMC2777269 (Nature medicine, 2002)
Read-outs that look alike come from different tables or passages of the source. Ends that are not written are not given here. * marks the point of attachment. 125I = [125I]*

Legend:
[1] = tested on: Zymosan A-driven PMN infiltration; experiment: Zymosan A-initiated PMN infiltration, 6-day-old murine air pouch; settings: 4 h; for inhibition of Zymosan A-driven PMN infiltration: mean, n = 8
15-epi-LXA4 = 15-epi-LXA4 generation in murine air-pouch exudates; type: in vivo, Swiss Albino mice; settings: ASA 300 μg; 4 and 16 h; n = 8
[2] = tested on: recombinant ALXR/FPRL1 (CHO-Gqo-ALXR cells); experiment: Chemotaxis of CHO cells expressing ALXR and Gqo chimera; settings: ATLa1 100 nM, Ac2-26 100 μM; 4 h, 37 °C; n = 3
human PMNs [3] = experiment: Human PMN chemotaxis; settings: n = 3
human PMNs [4] = experiment: Ca^2+ mobilization in Fura2-AM-loaded human PMNs
[5] = tested on: PMN transmigration and adhesion; settings: cited from earlier work
monocytes/macrophages = settings: nonphlogistic; cited from earlier work
[6] = tested on: human LTB4 receptor (BLT1); settings: BLT1-transfected HEK293 cells; cited from earlier work
recombinant ALXR/FPRL1 = target: T1, recombinant ALXR/FPRL1 (Homo sapiens, UniProt P25090); settings: HEK293-ALXR, 30 nM [^125I-Tyr]Ac2-26, 40 min, 4 °C; duplicates, n = 3
T1 sequence (P25090 1-351): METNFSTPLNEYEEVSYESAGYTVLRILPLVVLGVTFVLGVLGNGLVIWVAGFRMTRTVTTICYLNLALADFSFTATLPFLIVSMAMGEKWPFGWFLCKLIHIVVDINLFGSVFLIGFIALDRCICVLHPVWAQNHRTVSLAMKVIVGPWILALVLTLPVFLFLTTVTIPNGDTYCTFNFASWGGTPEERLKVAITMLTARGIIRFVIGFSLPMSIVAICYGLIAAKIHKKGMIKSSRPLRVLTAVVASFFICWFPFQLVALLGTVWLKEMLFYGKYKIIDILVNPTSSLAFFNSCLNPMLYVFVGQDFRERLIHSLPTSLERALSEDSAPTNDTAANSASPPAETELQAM

[7] = target: T2, adherent human PMNs (ALXR/FPRL1) (Homo sapiens, UniProt P25090); experiment: [^125I-Tyr]Ac2-26 binding, adherent human PMNs; settings: 30 nM [^125I-Tyr]Ac2-26, duplicates, n = 3
T2 sequence (P25090 1-351): T1 sequence (P25090 1-351)

human PMNs (ALXR/FPRL1) = target: T3, human PMNs (ALXR/FPRL1) (Homo sapiens, UniProt P25090); experiment: [^125I-Tyr]Ac2-26 binding, isolated human PMNs in suspension; settings: 30 nM [^125I-Tyr]Ac2-26, 40 min, 4 °C, duplicates, n = 3
T3 sequence (P25090 1-351): T1 sequence (P25090 1-351)

[8] = tested on: human PMN oxidative burst; settings: cited from earlier work
ALXR/FPRL1 [9] = settings: cited from earlier work
human ALXR (ALXR/FPRL1) = target: T4, human ALXR (ALXR/FPRL1) (Homo sapiens, UniProt P25090); settings: at much higher concentrations than LXA4; cited from earlier work
T4 sequence (P25090 1-351): T1 sequence (P25090 1-351)

ANXA1 = ANXA1 generation in murine air-pouch exudates; type: in vivo, Swiss Albino mice; settings: 4 h versus 16 h; n = 8
[10] = tested on: formyl peptide receptors (FPRs); settings: partially diminished; cited from earlier work
[11] = tested on: PMN transmigration and phagocytosis; settings: in vitro and in vivo; cited from earlier work
ALXR/FPRL1 [12] = experiment: ANXA1/ALXR co-immunoprecipitation, human PMNs; type: binding; settings: non-adherent human PMNs (control)
[13] = target: T5, human recombinant lipoxin A4 receptor (ALXR/FPRL1) expressed on HEK293 cells (human, UniProt P25090 1-351); experiment: radioligand binding
T5 sequence (looked up): T1 sequence (P25090 1-351)

[14] = target: T5, human recombinant lipoxin A4 receptor …; experiment: radioligand binding; remark: listed apart in the source

O=C(O)CCC[C@H](O)[C@H](O)/C=C/C=C/C=C\C=C\[C@@H](O)COc1ccc(F)cc1 [ATLa, 15-epi-16-(para-fluoro)-phenoxy-LXA4]
inhibition of PMN infiltration, i.v. ATLa 5 μg ([1]; 5 μg per mouse (~12 nmol) i.v. 15 min before Zymosan A, n = 6–8): ~ 40% | inhibition of PMN infiltration, administered (in words) ([1]; ATLa 0.5–5 μg, Ac2-26 5–100 μg i.v., n = 6–8): potent inhibitors of PMN infiltration

CC(=O)Oc1ccccc1C(=O)O [ASA, Aspirin, reference compound]
15-epi-LXA4 (ATL) generation in ASA-treated animals (15-epi-LXA4): generated and present in ASA-treated animals at 4 hours that diminished by 16 hours | inhibition of Zymosan A-driven PMN infiltration ([1]; ASA alone 1 mg into pouch 15 min before Zymosan A (1 mg)): 36%

CCCCCC(C)(O)/C=C/C=C\C=C\C=C\[C@@H](O)[C@@H](O)CCCC(=O)O (mixture of isomers) [ATLa1, 15(R/S)-methyl-LXA4]
chemotaxis responses, CHO-Gqo-ALXR cells [2]: clear chemotaxis responses | block of Ac2-26-evoked chemotaxis, human PMNs (human PMNs [3]; ATLa1 10 or 100 nM, 30 min, 37 °C, Ac2-26 1–10 μM): clearly blocked Ac2-26 evoked chemotaxis | chemotactic activity, human PMNs (human PMNs [3]; Ac2-26 1–10 μM or ATLa1 alone 10–100 nM): did not evoke chemotaxis

Ac2-6: ANXA1-derived peptide (Ac-AMVSE; UniProt P04083 2-6, looked up, fragment)
inhibition of PMN infiltration, i.v. peptides (in words) ([1]; i.v. tail vein 15 min prior to 1 mg Zymosan A, 6–12 mice): inhibited PMN infiltration in a dose-dependent fashion

C[C@@H]1C[C@H]2[C@@H]3CCC4=CC(=O)C=C[C@]4(C)[C@@]3(F)[C@@H](O)C[C@]2(C)[C@@]1(O)C(=O)CO [DEX, dexamethasone, reference compound]
inhibition of Zymosan A-driven PMN infiltration ([1]; DEX alone 10 μg into pouch 15 min before Zymosan A (1 mg)): 53%

O=c1c(-c2ccc(O)cc2)coc2cc(O)cc(O)c12 [genistein, reference compound]
block of Ac2-26 calcium mobilization response (human PMNs [4]; Supplementary Fig. B, panel c): partially blocked | modulation of LXA4-regulated PMN transmigration and adhesion [5]: modulates LXA4-regulated PMN transmigration and adhesion

CCCCC[C@H](O)/C=C/C=C\C=C\C=C\[C@@H](O)[C@@H](O)CCCC(=O)O [LXA4, lipoxin A4, reference compound]
enhanced uptake of apoptotic neutrophils by monocytes/macrophages (monocytes/macrophages): enhance the uptake of apoptotic neutrophils | competition for [^3H]LTB4 binding [6]: neither LXA4 (ref. [18]) nor Ac2-26 peptide competed | competition for specific [^125I-Tyr]Ac2-26 binding (in words) (recombinant ALXR/FPRL1): specifically competed | competition for specific [^125I-Tyr]Ac2-26 binding, adherent PMNs (in words) [7]: retained their ability to compete | competition for [^125I-Tyr]Ac2-26 binding to human PMN (in words) (human PMNs (ALXR/FPRL1); suspension): competed for [^125I-Tyr]Ac2-26 peptide binding to human PMN

B1: SAA: a proteolytic product of the acute phase response (protein, UniProt P0DJI8 19-122, looked up)
Serum amyloid A-1 protein: RSFFSFLGEAFDGARDMWRAYSDMREANYIGSDKYFHARGNYDAAKRGPGGAWAAEVITDARENIQRFFGHGAEDSLADQAANEWGRSGKDPNHFRPAGLPEKY
inhibition of human PMN oxidative burst [8]: inhibits human PMN oxidative burst | activation of HEK293 cells expressing ALXR/FPRL1 (ALXR/FPRL1 [9]): activates HEK293 cells expressing ALXR/FPRL1 | competition for specific [^3H]LXA4 binding (in words) (human ALXR (ALXR/FPRL1)): competes for specific [^3H]LXA4 binding | competition for specific [^125I-Tyr]Ac2-26 binding, adherent PMNs (in words) [7]: retained their ability to compete | IC50 (human PMNs (ALXR/FPRL1); read-out: apparent IC50, competition for specific [^125I-Tyr]Ac2-26 binding, human PMNs in suspension): ~1000 nM

B2: ANXA1: protein of 346 amino acids and a member of the annexin superfamily, highly abundant PMN-derived protein induced by glucocorticoids (protein, UniProt P04083 2-346, looked up)
Annexin A1: AMVSEFLKQAWFIENEEQEYVQTVKSSKGGPGSAVSPYPTFNPSSDVAALHKAIMVKGVDEATIIDILTKRNNAQRQQIKAAYLQETGKPLDETLKKALTGHLEEVVLALLKTPAQFDADELRAAMKGLGTDEDTLIEILASRTNKEIRDINRVYREELKRDLAKDITSDTSGDFRNALLSLAKGDRSEDFGVNEDLADSDARALYEAGERRKGTDVNVFNTILTTRSYPQLRRVFQKYTKYSKHDMNKVLDLELKGDIEKCLTAIVKCATSKPAFFAEKLHQAMKGVGTRHKALIRIMVSRSEIDMNDIKAFYQKMYGISLCQAILDETKGDYEKILVALCGGN
ANXA1 generation in exudates (ANXA1): low at 4 hours and much higher at 16 hours | competition for specific [^125I-Tyr]Ac2-26 binding (in words) (recombinant ALXR/FPRL1): competed for [^125I-Tyr]Ac2-26 binding with similar affinity | reduction of ANXA1 interactions with circulating leukocytes or peritoneal macrophages in FPR-deficient mice [10]: ~ 40% | inhibition of PMN transmigration and phagocytosis [11]: potent inhibitors of PMN transmigration and phagocytosis | co-immunoprecipitation of ANXA1 with ALXR/FPRL1, non-adherent PMNs (ALXR/FPRL1 [12]): not co-immunoprecipitated

Ac-AMVSEFLKQAWFIENEEQEYVQTVK [ANXA1-derived peptide Ac2-26 (unlabelled)]
IC50 [13]: ~300 nM

B3: hrANXA1: human recombinant annexin 1 (protein)
chain: MAMVSEFLKQAWFIENEEQEYVQTVKSSKGGPGSAVSPYPTFNPSSDVAALHKAIMVKGVDEATIIDILTKRNNAQRQQIKAAYLQETGKPLDETLKKALTGHLEEVVLALLKTPAQFDADELRAAMKGLGTDEDTLIEILASRTNKEIRDINRVYREELKRDLAKDITSDTSGDFRNALLSLAKGDRSEDFGVNEDLADSDARALYEAGERRKGTDVNVFNTILTTRSYPQLRRVFQKYTKYSKHDMNKVLDLELKGDIEKCLTAIVKCATSKPAFFAEKLHQAMKGVGTRHKALIRIMVSRSEIDMNDIKAFYQKMYGISLCQAILDETKGDYEKILVALCGGN
effect on cellular response to subsequent fMLP (in words) (human PMNs [4]; Ac2-26 10 μM, hrANXA1 0.5 μM): did not affect the cellular response

Ac-AMVSEFLKQAWFIENEEQEY(125I)VQTVK [[125I-Tyr]Ac2-26 peptide (radio-iodinated ANXA1-derived peptide Ac2-26)]
Kd [14]: ~900 nM

Ac-AMVSEFLKQAW [ANXA1-derived peptide Ac2-12]
IC50 [13]: ~300 nM | IC50 [14]: ~20000 nM
